Publication PMC9530963, “A cathelicidin antimicrobial peptide from Hydrophis cyanocinctus inhibits Zika virus infection by downregulating expression of a viral entry factor” (The Journal of Biological Chemistry, 2022)

Tests used:
[1] = tested on: type I IFN signaling; assay: Type I IFN signaling in U251 cells (qPCR, Western blot); assay type: cell-based, Homo sapiens
Protocol: Figure 7 Hc-CATH-induced AXL downregulation reverses the negative regulation of AXL on type I IFN signaling.A, schematic diagram of B and C. B, effect of Hc-CATH on type I IFN signaling. U251 cells were cultured in the presence of Hc-CATH (2.5 μM) or same volume of PBS (solvent of peptide). After culture at 37 °C for 24 h, type I IFN genes were tested by qPCR. C, effect of Hc-CATH on type I IFN signaling upon ZIKV challenge. U251 cells were cultured in the presence of Hc-CATH (2.5 μM) or PBS (solvent of peptide) at 37 °C for 2 h. Cells were washed with PBS and incubated with ZIKV (MOI = 1) at 37 °C for 2 h. Cell were washed with PBS again and cultured in DMEM containing 2% FBS at 37 °C for 24 h. Type I IFN genes were tested by qPCR. D, schematic diagram of E–G. E and F, U251 cells were cultured in the presence of Hc-CATH (2.5 μM) or PBS (solvent of peptide) at 37 °C for 12 h. Cells were stimulated with SeV (MOI = 1) at 37 °C for 12 h. Type I IFN gene was tested by qPCR (E). […] DMEM, Dulbecco’s modified Eagle’s medium; FBS, fetal bovine serum; IFN, interferon; MOI, multiplicity of infection; qPCR, quantitative PCR; SeV, Sendai virus; ZIKV, Zika virus.
U251 cells were cultured with Hc-CATH (2.5 μM) or PBS at 37 °C for 24 h, and cells were collected for testing type I IFN signaling gene and protein by qPCR and WB, respectively. Upon ZIKV challenge, U251 cells were incubated with Hc-CATH (2.5 μM) or PBS at 37 °C for 2 h and washed three times with PBS. Cells were then incubated with ZIKV (MOI = 1) for 2 h and washed with PBS. After culture for 24 h, type I IFN signaling genes were tested by qPCR. Upon SeV challenge, U251 cells were incubated with Hc-CATH (2.5 μM) or PBS at 37 °C for 12 h, cells were then stimulated with SeV or same volume of PBS for 12 h, and type I IFN signaling gene and protein were tested by qPCR and WB, respectively.

[2] = tested on: ZIKV; assay: Susceptibility of Vero cells to ZIKV (peptide pretreatment of cells); assay type: cell-based, ZIKV strain PRVABC59; conditions: 2.5 μM, Vero cells incubated 2 h with peptide before ZIKV (MOI = 1), 48 h
Protocol: Figure 2 Hc-CATH decreases the susceptibility of Vero cells to ZIKV.A, schematic diagram of B–G (Hc-CATH-Vero-pre). B–G, pretreatment with Hc-CATH before ZIKV infection decreases the susceptibility of Vero cells to ZIKV. Vero cells were seeded in 24-well plates (5 × 10^4 cells/well) and cultured in DMEM containing 2% FBS. Hc-CATH (2.5 μM), AC5 (2.5 μM), LL-37 (2.5 μM), or same volume of PBS (peptide solvent) was added to cells and incubated at 37 °C for 2 h. Vero cells were washed three times with PBS, and ZIKV (MOI = 1) was added to cells. After incubation at 37 °C for 2 h, Vero cells were washed with PBS and transferred with fresh DMEM containing 2% FBS. After culture for 48 h, intracellular ZIKV RNA (B), NS3 protein (C and D, C: immunoblots, D: ratio analyzed by ImageJ), E protein (E, the scale bar represents 50 μm), and extracellular ZIKV titer (F and G) was tested by qPCR, Western blot, immunofluorescence staining, and plaque-forming assay, respectively.
Vero, A549, or U251 cells were incubated with peptide or PBS at 37 °C for 2 h. The cells were washed three times with PBS and incubated with ZIKV (MOI = 1) at 37 °C for 2 h. The culture media were replaced with fresh DMEM containing 2% FBS. After incubation at 37 °C for 48 h, intracellular ZIKV RNA, NS3 protein, E protein, and extracellular ZIKV titer were detected by qPCR, WB, IF, and plaque-forming assay, respectively ([28]).

[3] = tested on: AXL; assay: AXL level in U251 cells (Western blot, immunofluorescence); assay type: cell-based, Homo sapiens; conditions: 1.25, 2.5, and 5 μM, 24 h, with and without ZIKV challenge
Protocol: Figure 5 Hc-CATH downregulates AXL in U251 cell.A, schematic diagram of B and C. B, U251 cells were seeded in 24-well plates (5 × 10^4 cells/well) and cultured in DMEM containing 2% FBS. Hc-CATH (1.25, 2.5, and 5 μM) or same volume of PBS (peptide solvent) was added to cells and incubated at 37 °C for 24 h. The level of AXL was tested by Western blot. C, U251 cells were seeded in 8-well cover slip chambers (5 × 10^4 cells/well) and cultured in DMEM containing 2% FBS. Hc-CATH (1.25, 2.5, and 5 μM) or PBS was added to cells and incubated at 37 °C for 24 h. The level of AXL was tested by immunofluorescence staining. The scale bar represents 50 μm. D, schematic diagram of E–G. E–G, U251 cells were seeded in 24-well plates (5 × 10^4 cells/well) and cultured in DMEM containing 2% FBS. Hc-CATH (1.25, 2.5, and 5 μM) or PBS was added to cells and incubated at 37 °C for 2 h. Cells were washed with PBS and incubated with ZIKV (MOI = 1). After incubation at 37 °C for 2 h, cells were washed with PBS and cultured in DMEM containing 2% FBS.
The effect of Hc-CATH on AXL was further confirmed in A549 and U251 cells. A549 or U251 cells were incubated with Hc-CATH (1.25, 2.5, and 5 μM) or PBS at 37 °C for 24 h, and the level of AXL was detected by WB and IF, respectively. Upon ZIKV challenge, A549 or U251 cells were incubated with Hc-CATH (1.25, 2.5, and 5 μM) or PBS at 37 °C for 2 h. […]

KFFKRLLKSVRRAVKKFRKKPRLIGLSTLL [Hc-CATH, cathelicidin antimicrobial peptide identified from the sea snake Hydrophis cyanocinctus]
levels of type I IFN genes in response to ZIKV infection ([1]; 2.5 μM 2 h, then ZIKV MOI = 1, 24 h, qPCR): upregulated the levels of type I IFN genes | IFN-β expression in response to SeV stimulation ([1]; 2.5 μM 12 h, then SeV MOI = 1 12 h, qPCR, compared with PBS): significantly increased IFN-β expression | levels of type I IFN genes ([1]; 2.5 μM, 24 h, qPCR): significantly increased the levels of type I IFN genes | phosphorylation of TANK-binding kinase 1 and IRF3 ([1]; 2.5 μM, Western blot, relative to PBS): increased the phosphorylation of TANK-binding kinase 1 and IRF3 | reduction of ZIKV NS3 protein, cells pre-incubated with peptide ([2]; Western blot): ~50.1% | reduction of ZIKV particles, cells pre-incubated with peptide ([2]; plaque-forming assay): ~62.2% | reduction of ZIKV RNA, cells pre-incubated with peptide ([2]; qPCR): about 46.1% | level of AXL in U251 cells [3]: effectively decreased the level of AXL
